The test relates to CD2F1 mice, L1210 leukemia ip, survival T/C. Nature of the test: NCI In Vivo Anticancer Drug Screen. Data for tumor model L1210 Leukemia (intraperitoneal) in CD2F1 (CDF1) mice. Conditions: higher = longer survival. The essentials: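 Implant tumor; dose compound or vehicle; measure endpoint in both groups; report treated divided by control.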
Setting [1] is: endpoint: mean survival time, dose: 100.0 mg/kg/injection, schedule: Q01DX009 (ip), vehicle: saline with Tween-80.
The mark [2] stands for this setting: endpoint: mean survival time, dose: 200.0 mg/kg/injection, schedule: Q01DX009 (ip), vehicle: saline with Tween-80.
Where [3] appears, read: endpoint: mean survival time, dose: 400.0 mg/kg/injection, schedule: Q01DX009 (ip), vehicle: saline with Tween-80.
[4] abbreviates: endpoint: mean survival time, dose: 100.0 mg/kg/injection, schedule: Q01DX001 (ip), vehicle: saline with Tween-80.
Setting [5] is: endpoint: mean survival time, dose: 200.0 mg/kg/injection, schedule: Q01DX001 (ip), vehicle: saline with Tween-80.
[6] abbreviates: endpoint: mean survival time, dose: 400.0 mg/kg/injection, schedule: Q01DX001 (ip), vehicle: saline with Tween-80.
The mark [7] stands for this setting: endpoint: mean survival time, dose: 100.0 mg/kg/injection, schedule: Q04DX003 (ip), vehicle: saline with Tween-80.
[8] abbreviates: endpoint: mean survival time, dose: 200.0 mg/kg/injection, schedule: Q04DX003 (ip), vehicle: saline with Tween-80.
Setting [9] is: endpoint: mean survival time, dose: 400.0 mg/kg/injection, schedule: Q04DX003 (ip), vehicle: saline with Tween-80.

The structures appear in SMILES notation. Several values for one entry are separate records, joined by “and”; a condition that tells them apart may be missing. Equal values may be shown once. Inconclusive results and toxic doses are left out.

For the molecule `COc1ccc(OC)c(NC(=O)Oc2ccc(C(=O)OCc3ccccc3)cc2)c1`, the T/C runs as follows: under setting [1], 101 % of control; under setting [2], 104 % of control; under setting [3], 104 % of control.

As to `Cc1[nH]c(=S)[nH]c(=O)c1CCO`, the T/C by setting is: under setting [4], 105 % of control; under setting [1], 101 % of control; under setting [5], 95 % of control; under setting [2], 103 % of control; under setting [6], 100 % of control; under setting [3], 101 % of control.

On to `COC(=O)c1cc(I)ccc1O`, for which the T/C by setting is: under setting [1], 107 % of control; under setting [7], 103 % of control; under setting [2], 109 % of control; under setting [8], 100 % of control; under setting [3], 103 % of control; under setting [9], 100 % of control.

As for `CCC(=O)OCCNc1cc(C(N)=O)c([N+](=O)[O-])cc1[N+](=O)[O-]`, the T/C reads like this: under setting [4], 105 % of control; under setting [5], 92 % of control; under setting [6], 97 % of control.

As to `O=C1c2ccccc2C(=O)N1CC/C=C/c1ccc([N+](=O)[O-])cc1Cl`, the T/C under setting [7] is 98 % of control, the T/C under setting [8] was 91 % of control and the T/C under setting [9] is 100 % of control.

Turning to `OC(Cc1ccccn1)c1ccccc1` (stereo not drawn), the T/C was 95 % of control under setting [7], 101 % of control under setting [8] and 98 % of control under setting [9].

As to `Cc1ccccc1NC(=O)CC#N`, the T/C reads like this: (endpoint: mean survival time, dose: 25.0 mg/kg/injection, schedule: Q01DX009 (ip), vehicle: saline with Tween-80) 96 % of control; (endpoint: mean survival time, dose: 50.0 mg/kg/injection, schedule: Q01DX009 (ip), vehicle: saline with Tween-80) 96 % of control; under setting [1], 94 % of control.

Regarding `Nc1ncn(C2OC(COC(=O)c3ccccc3)C(OC(=O)c3ccccc3)C2OC(=O)c2ccccc2)n1` (stereo not drawn), the T/C was 94 % of control (endpoint: median survival time, dose: 8.75 mg/kg/injection, schedule: Q01DX005 (ip), vehicle: distilled water + Tween-80); 91 % of control (endpoint: median survival time, dose: 17.5 mg/kg/injection, schedule: Q01DX005 (ip), vehicle: distilled water + Tween-80); 91 % of control (endpoint: median survival time, dose: 35.0 mg/kg/injection, schedule: Q01DX005 (ip), vehicle: distilled water + Tween-80); 95 % of control (endpoint: median survival time, dose: 70.0 mg/kg/injection, schedule: Q01DX005 (ip), vehicle: distilled water + Tween-80); 91 % of control (endpoint: median survival time, dose: 140.0 mg/kg/injection, schedule: Q01DX005 (ip), vehicle: distilled water + Tween-80).

Consider `O=CC(O)C(O)C(O)C(O)C(=O)O.[NH-]C1CCCCC1[NH-].[Pt+2]` (stereo not drawn), for which the T/C was 156 % of control (endpoint: mean survival time, dose: 0.78 mg/kg/injection, schedule: Q01DX005 (ip), vehicle: saline); 203 % of control (endpoint: mean survival time, dose: 1.56 mg/kg/injection, schedule: Q01DX005 (ip), vehicle: saline); 160 % of control (endpoint: mean survival time, dose: 1.56 mg/kg/injection, schedule: Q01DX009 (ip), vehicle: saline); 266 % of control (endpoint: mean survival time, dose: 3.12 mg/kg/injection, schedule: Q01DX005 (ip), vehicle: saline); 150 % of control (endpoint: mean survival time, dose: 3.12 mg/kg/injection, schedule: Q04DX003 (ip), vehicle: saline); 200 % of control (endpoint: mean survival time, dose: 3.13 mg/kg/injection, schedule: Q01DX009 (ip), vehicle: saline). Besides, the T/C by setting is: (endpoint: mean survival time, dose: 6.25 mg/kg/injection, schedule: Q01DX005 (ip), vehicle: saline) 300 % of control; (endpoint: mean survival time, dose: 6.25 mg/kg/injection, schedule: Q01DX009 (ip), vehicle: saline) 167 % of control; (endpoint: mean survival time, dose: 6.25 mg/kg/injection, schedule: Q04DX003 (ip), vehicle: saline) 280 % of control; (endpoint: mean survival time, dose: 12.5 mg/kg/injection, schedule: Q01DX005 (ip), vehicle: saline) 103 % of control; (endpoint: mean survival time, dose: 12.5 mg/kg/injection, schedule: Q04DX003 (ip), vehicle: saline) 301 % of control; (endpoint: mean survival time, dose: 25.0 mg/kg/injection, schedule: Q04DX003 (ip), vehicle: saline) 231 % of control and 259 % of control. The T/C (endpoint: mean survival time, dose: 50.0 mg/kg/injection, schedule: Q04DX003 (ip), vehicle: saline) is 108 % of control; the T/C (endpoint: median survival time, dose: 1.02 mg/kg/injection, schedule: Q01DX009 (ip), vehicle: saline) is 160 % of control and 170 % of control; the T/C (endpoint: median survival time, dose: 1.37 mg/kg/injection, schedule: Q01DX009 (ip), vehicle: saline) is 170 % of control and 180 % of control; the T/C (endpoint: median survival time, dose: 1.56 mg/kg/injection, schedule: Q01DX009 (ip), vehicle: saline) is 236 % of control; the T/C (endpoint: median survival time, dose: 2.09 mg/kg/injection, schedule: Q01DX009 (ip), vehicle: saline) was 189 % of control and 714 % of control; the T/C (endpoint: median survival time, dose: 3.12 mg/kg/injection, schedule: Q01DX009 (ip), vehicle: saline) was 188 % of control and 253 % of control and 261 % of control. Besides, the T/C by setting is: (endpoint: median survival time, dose: 6.25 mg/kg/injection, schedule: Q01DX009 (ip), vehicle: saline) 119 % of control; (endpoint: median survival time, dose: 6.25 mg/kg/injection, schedule: Q04DX003 (ip), vehicle: saline) 101 % of control; (endpoint: median survival time, dose: 12.5 mg/kg/injection, schedule: Q01DX009 (ip), vehicle: saline) 90 % of control; (endpoint: median survival time, dose: 12.5 mg/kg/injection, schedule: Q04DX003 (ip), vehicle: saline) 100 % of control; (endpoint: median survival time, dose: 12.5 mg/kg/injection, schedule: Q04DX003 (iv), vehicle: saline) 123 % of control; (endpoint: median survival time, dose: 25.0 mg/kg/injection, schedule: Q04DX003 (ip), vehicle: saline) 103 % of control. In addition, the T/C (endpoint: median survival time, dose: 50.0 mg/kg/injection, schedule: Q04DX003 (iv), vehicle: saline) was 365 % of control and the T/C (endpoint: median survival time, dose: 100.0 mg/kg/injection, schedule: Q04DX003 (ip), vehicle: saline) was 113 % of control.

Turning to `O=[N+]([O-])O.[Cu+2].[NH-]C1CCCCC1[NH-].[NH-]C1CCCCC1[NH-]` (stereo not drawn), under “endpoint: mean survival time, dose: 12.5 mg/kg/injection, schedule: Q04DX002 (ip), vehicle: saline with Tween-80”, the T/C is 94 % of control.

Turning to `Cc1cc(C)c(C(=O)c2ccccc2-c2ccccc2C(=O)c2c(C)cc(C)cc2C)c(C)c1`, the T/C was 86 % of control under setting [1]; 96 % of control under setting [7]; 89 % of control under setting [2]; 100 % of control under setting [8]; 91 % of control under setting [3]; 96 % of control under setting [9].

As to `Cc1ncc(CO)c(/C=N/NC(N)=S)c1O`, the T/C was 101 % of control (endpoint: mean survival time, dose: 100.0 mg/kg/injection, schedule: Q01DX001 (ip), vehicle: saline); 100 % of control (endpoint: mean survival time, dose: 200.0 mg/kg/injection, schedule: Q01DX001 (ip), vehicle: saline); 101 % of control (endpoint: mean survival time, dose: 400.0 mg/kg/injection, schedule: Q01DX001 (ip), vehicle: saline).

Take `Cc1ccc(Cc2cc(=O)[nH]c(=O)[nH]2)cc1`: the T/C was 96 % of control (endpoint: mean survival time, dose: 25.0 mg/kg/injection, schedule: Q01DX009 (ip), vehicle: Klucel (hydroxypropylcellulose) (HPC)); 100 % of control (endpoint: mean survival time, dose: 50.0 mg/kg/injection, schedule: Q01DX009 (ip), vehicle: Klucel (hydroxypropylcellulose) (HPC)); 94 % of control and 96 % of control (endpoint: mean survival time, dose: 100.0 mg/kg/injection, schedule: Q01DX009 (ip), vehicle: Klucel (hydroxypropylcellulose) (HPC)).

For the molecule `CN(C)S(=O)(=O)C(C)(C)c1ccccc1`, the T/C runs as follows: under setting [4], 100 % of control; under setting [1], 96 % of control; under setting [7], 94 % of control; under setting [5], 101 % of control; under setting [2], 96 % of control; under setting [8], 94 % of control. The T/C was 100 % of control under setting [6] and 96 % of control under setting [9].

Take `O=C1NC(CN2CCCCC2)C(=O)NC1CN1CCCCC1` (stereo not drawn): the T/C (endpoint: mean survival time, dose: 3.13 mg/kg/injection, schedule: Q01DX009 (ip), vehicle: water) is 98 % of control; the T/C (endpoint: mean survival time, dose: 6.25 mg/kg/injection, schedule: Q01DX009 (ip), vehicle: water) was 98 % of control; the T/C (endpoint: mean survival time, dose: 12.5 mg/kg/injection, schedule: Q01DX009 (ip), vehicle: water) was 105 % of control; the T/C (endpoint: mean survival time, dose: 25.0 mg/kg/injection, schedule: Q01DX009 (ip), vehicle: water) is 103 % of control; the T/C (endpoint: mean survival time, dose: 50.0 mg/kg/injection, schedule: Q01DX009 (ip), vehicle: water) was 98 % of control; the T/C (endpoint: mean survival time, dose: 100.0 mg/kg/injection, schedule: Q01DX009 (ip), vehicle: water) is 105 % of control.

Take `Nc1ccc(CCCCc2ccc(Cl)c(S(=O)(=O)F)c2)c(Cl)c1`: the T/C runs as follows: under setting [1], 95 % of control; under setting [7], 95 % of control; under setting [2], 92 % of control; under setting [8], 101 % of control; under setting [3], 94 % of control; under setting [9], 94 % of control.

Take `O=C(O)c1cccc(F)c1Cl`: the T/C reads like this: (endpoint: mean survival time, dose: 100.0 mg/kg/injection, schedule: Q04DX002 (ip), vehicle: saline with Tween-80) 95 % of control; (endpoint: mean survival time, dose: 200.0 mg/kg/injection, schedule: Q04DX002 (ip), vehicle: saline with Tween-80) 102 % of control.

The values are drawn from PubChem BioAssay AID256 (DTP/NCI, 2004).
